Measured values: patent publication US8962003B2, “Insect behaviour modifying compounds” (The New Zealand Institute for Plant and Food Research …, priority 2003, dated 2015)

Experiments:
Thrips hawaiiensis = conditions: field trials; cited from earlier work
Thrips coloratus = conditions: field trials; cited from earlier work
Thrips flavus = conditions: cited from earlier work
Thrips tabaci = conditions: cited from earlier work
[1] = system: Frankliniella occidentalis; assay: Y-tube olfactometer bioassay; type: in vivo; conditions: female Frankliniella occidentalis
Experimental: The thrips behaviour-modifying activity of a compound may be evaluated in a glass Y-tube olfactometer following the method described by de Kogel et al. (de Kogel, W. J., Koschier, E. H. and Visser, J. H. Proc. Exper. & Appl. Entomol., N. E. V. Amsterdam, (1999) 10, 131-135.) and Koschier et al. (Koschier, E. H., De Kogel, W. J. and Visser, J. H. (2000) Jounrnal of Chemical Ecology, 26, 2643-2655).
The olfactory behaviour of thrips toward volatile compounds was evaluated in a glass Y-tube olfactometer following the method described by de Kogel et al. (de Kogel, W. J., Koschier, E. H. and Visser, J. H. Proc. Exper. & Appl. Entomol., N. E. V. Amsterdam, (1999) 10, 131-135.) and Koschler et al. (Koschier, E. H., De Kogel, W. J. and Visser, J. H. (2000) Journal of Chemical Ecology, 26, 2643-2655.). The Y-tube has two branching arms at an angle of 45° leading into a single tube, all 60 mm long, with an internal diameter of 5 mm. The arms of the Y-tube were connected to glass Wheaton Micro Kit® adapters that were in turn attached to 4 ml glass vials each containing a 1 cm^2 piece of filter paper (Whatman No. 1). The Y-tube and Wheaton apparatus were placed in a grey-box (to prevent external stimuli influencing thrips' behaviour), located in a darkened, air-conditioned room (22±3° C.). The Y-tube was placed at an inclining position of 25° between the Y-tube and horizontal plane and illuminated from above by a halogen lamp (780 lux). One microliter of the volatile compounds, either undiluted or diluted in hexane (95%, Pronalys AR), was applied to filter paper in one vial, while 1 μl of hexane was applied to filter paper held in the second vial. Air was drawn through activated charcoal before entering the Wheaton apparatus and Y-tube using a suction pump (AR Harris Co. Ltd, Christchurch) producing an airflow of 5 cm/s through each arm and 10 cm/s at the base of the Y-tube. Air was drawn through for 30 min before introducing the first thrips. Connections between the activated charcoal, Wheaton apparatus, Y-tube and suction pump consisted of silicone tubing.
An individual female Frankliniella occidentalis thrips of unknown age, that had been starved overnight, was released into the Y-tube using a small aspirator. The aspirator was made by placing a 1 ml pipette tip over the end of silicone tubing (5 mm diameter) the end of which was covered with fine mesh; the pipette tip was cut so it projected 5 mm beyond the end of the silicone tubing. A thrips was sucked up into the pipette tip, which was then placed at the base of the Y-tube. Most thrips walked up into the Y-tube within a few seconds, at which time the silicone air suction tubing was reconnected to the glass Y. The choice between clean or odour laden airflow was recorded when the thrips reached the far end of one arm and only those thrips that made the choice within 3 min were recorded. After every 5 thrips the Y-tube and Wheaton apparatus were rotated […] to avoid position effects. After 25 choices were recorded, the Y-tube and Wheaton apparatus were thoroughly cleaned with acetone (99.5%, BDH) and allowed to dry before repeating the experiment. Each compound and dilution was replicated 3 times.

[2] = system: Frankliniella occidentalis; assay: Greenhouse trials with water traps or yellow sticky traps; type: in vivo; conditions: 24 h, capsicum greenhouse, t-value in brackets in same cell
From the text: Greenhouse trials were undertaken using water traps similar to those used in the field trials (Example 2), or yellow sticky traps (Veg-Gro Supplies Ltd, Auckland) to examine the response of thrips to volatile compounds. The greenhouse, located in Auckland, is ≈88×200 m, constructed of glass, and is used to grow capsicum (Capsicum annuum var. Special, Fiesta, Boogie and Stirit). Water traps were placed 20 to 24 m apart within a row and 24 m apart between rows. There were 6 baited water traps for each compound tested and 6 water-only traps randomly positioned in a 6×2 grid in the greenhouse. Traps were positioned just above the crop canopy. Water traps (2 L containers, 16×16×8.5 cm) were assembled as described in Example 2 and left in the greenhouse for 24 h, after which time the containers were sealed for transport to a laboratory. Insects from each water trap were transferred to 5 ml glass tubes containing 75% ethanol within 24 h of collecting them from the greenhouse. Catches from each treatment were analysed under a stereomicroscope (100×) and the proportion of Frankliniella occidentalis was determined.
Yellow sticky traps (24.4×20 cm) were treated with a compound or water using a 30 ml spray mist dripulator (Arthur Holmes, Wellington) held 10 cm away from the sticky trap. Four sprays were applied to each side, coating the sticky trap in approximately 1 ml of water or compound. Sticky traps sprayed with the same treatment were separated using black metal foldback clips (19 mm, Celco), suspended within a cardboard box (29.5×22.3×30.2 cm), which was in turn sealed within a plastic bag for transport to the greenhouse. Traps were suspended in the greenhouse just above the crop canopy within 3 h after spraying, using the same layout as for the water traps (20 to 24 m apart within a row, 24 m between rows, in a 6×2 grid). After 24 h the traps were collected by wrapping each trap in plastic wrap for transport to the laboratory. The total number of thrips on the traps were counted using 10× magnification. Thrips were removed from the sticky traps using De-Solv-it® and Johnsons baby oil®. A subsample from each treatment was further analysed under a stereomicroscope (100×) and the proportion of Frankliniella occidentalis was determined.

Thrips obscuratus = conditions: Penman et al. 1982; cited from earlier work
[3] = system: Frankliniella occidentalis; conditions: literature; anisaldehyde with blue sticky or yellow water traps; WO 03/055309 Y-tube; cited from earlier work

| Compound | Attractancy to Thrips hawaiiensis (literature) (Thrips hawaiiensis) | Attractancy to Thrips coloratus (literature) (Thrips coloratus) | Attractancy to Thrips flavus (literature) (Thrips flavus) | Attractancy to Thrips tabaci (literature) (Thrips tabaci) | MAC (%) = Minimum Active Concentration to elicit a response from thrips (P < 0.05) ([1]; 1 µl undiluted or diluted in hexane) [%] | % Response: percentage of thrips to walk up odour-laden arm ([1]; same cell prints a '(t value)' in brackets) | Average ratio of thrips caught relative to water treated traps ([2]; Water trap, around 66% of thrips caught were Frankliniella occidentalis) | Average ratio of thrips caught relative to water treated traps ([2]; Yellow sticky trap, about 1 ml sprayed, >95% of thrips caught were Frankliniella occidentalis) | Attractancy to Thrips obscuratus (literature) (Thrips obscuratus) | Attractancy to Frankliniella occidentalis (literature) [3] |
| --- | --- | --- | --- | --- | --- | --- | --- | --- | --- | --- |
| CCOC(=O)c1ccccc1N [ethyl anthranilate] | attractant | attractant | attractant |  |  |  |  |  |  |  |
| COC(=O)c1ccccc1N [methyl anthranilate] | attractant | attractant |  | not for Thrips tabaci |  |  |  |  |  |  |
| CCOC(=O)c1cccnc1 [Ethyl nicotinate, reference compound] |  |  |  | varied in its attractiveness | 0.01 | 60.0 (0.043) % | 1 (0.1) | 1.1 (0.4) | potent attractant | less attractive |
